Assay results published in patent US11731941B2 (Exelixis, Inc., priority 2017, dated 2023).
≈ marks a conversion by molar mass, not a printed value. Counter-ions that a name gives are not always drawn. Blank lines part the entries; values can stand above or below the molecule they belong to.

Experiments:
[1] = aqueous equilibrium solubility by HPLC; format: physicochemical; conditions: for pH of the solubility solution: checked with pH paper; for solubility compared to malate salt of Compound 1: comparison in words; for aqueous solubility: distilled water, ambient temperature (about 25° C.), 24 hours, HPLC
Protocol: The HPLC method used to determine aqueous equilibrium solubility is outlined in Table 32.
HPLC solubility determination about 5 mg of each salt was added to a vial with distilled water (1 mL). These were stirred at ambient temperature (about 25° C.) for 24 hours. The solution was isolated by filtration through a 0.2 μm PTFE filter and was analyzed by HPLC for concentration. The pH of the solutions was checked with pH paper.

[2] = Dynamic Vapor Sorption (DVS) hygroscopicity; format: physicochemical; conditions: for XRPD analysis of the post DVS sample: physical form after DVS cycle; for hygroscopicity, European Pharmacopoeia classification: weight increase at 80% RH (25° C.)
Protocol: As used herein “the European Pharmacopoeia classification” is a system whereby a chemical Compound 1s classified based on hygroscopicity. The classification is determined according to Table 2: [table] Dynamic Vapor Sorption (DVS) was performed using a Hiden Analytical Instruments IGAsorp Vapor Sorption Balance. Approximately 30 mg of sample was placed into a wire mesh vapor sorption balance pan, loaded into the IGAsorp vapor sorption balance, and held at 25° C.±0.1° C. The sample was subjected to a step profile from 0 to 90% RH at 10% increments, followed by desorption from […] to 0% RH at 10% increments. The equilibrium criterion was set to 99.0% step completion within a minimum of 60 minutes and a maximum of 5 hours for each increment. The weight change during the sorption cycle was monitored, allowing for the hygroscopic nature of the sample to be determined. The data collection interval was in seconds.

[3] = humidity stress at 40° C./75% relative humidity; format: physicochemical; conditions: about 7 days
[4] = both forms of Compound 1 (S)-malate; comparison value, source not stated; cited from earlier work
[5] = initial development experiments (BCS classification, solubility, permeability); format: physicochemical; conditions: free base
[6] = listed as Compound 1 isethionate monohydrate

pH of the solubility solution ([1]; listed as Compound 1 pyruvate): about 3
solubility compared to malate salt of Compound 1 ([1]; listed as Compound 1 pyruvate): higher solubility
aqueous solubility ([1]; listed as Compound 1 pyruvate): about 0.133 mg/mL
total weight gain between 0% RH and 80% RH ([2]; DVS, 25° C., listed as Compound 1 pyruvate): 0.10 % w/w
XRPD analysis of the post DVS sample [2]: remained unchanged
hygroscopicity, European Pharmacopoeia classification ([2]; listed as Compound 1 pyruvate): non-hygroscopic
Compound: COc1cc2nccc(Oc3ccc(NC(=O)C4(C(=O)Nc5ccc(F)cc5)CC4)cc3)c2cc1OC [Form 14, N-{4-[(6,7-dimethoxyquinolin-4-yl)oxy]phenyl}-N′-(4-fluorophenyl) cyclopropane-1,1-dicarboxamide]

XRPD after humidity stressing [3]: no form change
weight loss after humidity stressing [3]: 43.17%
Compound: COc1cc2nccc(Oc3ccc(NC(=O)C4(C(=O)Nc5ccc(F)cc5)CC4)cc3)c2cc1OC [Form 3, N-{4-[(6,7-dimethoxyquinolin-4-yl)oxy]phenyl}-N′-(4-fluorophenyl) cyclopropane-1,1-dicarboxamide]

pH of the solubility solution [1, 6]: about 2
solubility compared to malate salt of Compound 1 [1, 6]: much higher solubility
aqueous solubility [1, 6]: 195 µg/mL (≈ 389 µM)
plateau of water content between 10-50% RH ([2]; DVS isotherm, 1 mol. eq.): about 3.0±0.1 % w/w
total weight gain between 20% RH and 80% RH ([2]; DVS, 25° C.): about 2.4 % w/w
XRPD analysis of the post DVS sample [2]: remained unchanged
hygroscopicity, European Pharmacopoeia classification [2, 6]: hygroscopic
Compound: COc1cc2nccc(Oc3ccc(NC(=O)C4(C(=O)Nc5ccc(F)cc5)CC4)cc3)c2cc1OC [Form 27, N-{4-[(6,7-dimethoxyquinolin-4-yl)oxy]phenyl}-N′-(4-fluorophenyl) cyclopropane-1,1-dicarboxamide]

Compound: COc1cc2nccc(Oc3ccc(NC(=O)C4(C(=O)Nc5ccc(F)cc5)CC4)cc3)c2cc1OC [Compound 1 (S)-malate, S-malate salt of N-{4-[(6,7-dimethoxyquinolin-4-yl)oxy]phenyl}-N′-(4-fluorophenyl) cyclopropane-1,1-dicarboxamide]
hygroscopicity weight gain of comparator [4]: about 0.4 % w/w

pH of the solubility solution ([1]; listed as Compound 1 glutarate): about 3
aqueous solubility ([1]; listed as Compound 1 glutarate): 16 µg/mL (≈ 31.9 µM)
total weight gain between 0% RH and 80% RH ([2]; DVS, 25° C., listed as Compound 1 glutarate): 0.08 % w/w
hygroscopicity, European Pharmacopoeia classification ([2]; listed as Compound 1 glutarate): non-hygroscopic
Compound: COc1cc2nccc(Oc3ccc(NC(=O)C4(C(=O)Nc5ccc(F)cc5)CC4)cc3)c2cc1OC [Form 20, N-{4-[(6,7-dimethoxyquinolin-4-yl)oxy]phenyl}-N′-(4-fluorophenyl) cyclopropane-1,1-dicarboxamide]

% Weight Change [3]: −0.94%
XRPD after humidity stressing [3]: Form 1
BCS class [5]: BCS class II
solubility ([5]; in water): low solubility
Compound: COc1cc2nccc(Oc3ccc(NC(=O)C4(C(=O)Nc5ccc(F)cc5)CC4)cc3)c2cc1OC [Compound 1, N-{4-[(6,7-dimethoxyquinolin-4-yl)oxy]phenyl}-N′-(4-fluorophenyl) cyclopropane-1,1-dicarboxamide]
